The values that follow come from patent US12708616B2, “Compositions and methods of treating age-related retinal dysfunction” (THE REGENTS OF THE UNIVERSITY OF CALIFORNIA, priority 2020, dated 2026).

The IC50 is the midpoint of a concentration-inhibition curve.

In assay [1] the test system is H3K9me3. The assay can be described thus: Immunohistochemistry of H3K9me3 in retinal cross-sections of photobleached dKO mice. It counts as in vivo, mouse. To be noted: 60 mg/kg bw intraperitoneal, 1 d after photobleaching, vs DMSO vehicle. From the text:
(§1) Male and female Abca4^−/−Rdh8^−/− mice at 6 to 8 weeks of age were used for the current study. These mice were maintained on a pigmented C57BL/6 background, and age-matched C57BL/6 mice from The Jackson Laboratory were used as wild-type controls. All mice were housed and maintained in a 12-hour light (≤150 lux)/12-hour dark cyclic environment in the University Laboratory Animal Resources center at the University of California, Irvine (UCI) School of Medicine. Bright light-induced retinal damage was generated by exposing photosensitive Abca4^−/−Rdh8^−/− mice to white light delivered at 10,000 lux (150-W spiral lamp, Commercial Electric, Cleveland, OH) for 30 min. Mice were dark-adapted 24 h prior to photobleaching, and pupils were dilated with 1% ophthalmic tropicamide 30 min prior to light exposure. […] All animal handling procedures and experimental protocols were approved by the Institutional Animal Care and Use Committee at UCI and conformed to recommendations of both the American Veterinary Medical Association (AVMA) Panel on Euthanasia and the Association for Research in Vision and Ophthalmology.
Mice were euthanized in a CO2 chamber prior to enucleation. […] Fluorescence microscopy images were obtained on a Keyence BZ-X810 fluorescent microscope.

The test system of assay [2] is H3K9me3. As to the kind of experiment: Quantitative Western blot of H3K9me3 (heterochromatin) in RPE/choroid of bleached dKO mice. It counts as in vivo, mouse. To be noted: 60 mg/kg bw intraperitoneal 30 min prior to light exposure, 1 d post-bleach.
From the text: as §1
(§2) Fresh retina and RPE were harvested from study mice as described previously. […] The blots were imaged, and IR signals were quantified using a LI-COR Odyssey Fc imaging system.
Background: In western blotting, separated proteins are transferred to a membrane and probed.

In assay [3] the test system is Abca4−/−Rdh8−/− (dKO) mice. As to the kind of experiment: SLO and OCT imaging of bright light-induced retinal damage. Type of assay: in vivo, mouse. The note with it: 60 mg/kg bw intraperitoneal, 7 d after photobleaching. From the text:
Male and female Abca4^−/−Rdh8^−/− mice at 6 to 8 weeks of age were used for the current study. These mice were maintained on a pigmented C57BL/6 background, and age-matched C57BL/6 mice from The Jackson Laboratory were used as wild-type controls. All mice were housed and maintained in a 12-hour light (≤150 lux)/12-hour dark cyclic environment in the University Laboratory Animal Resources center at the University of California, Irvine (UCI) School of Medicine. Bright light-induced retinal damage was generated by exposing photosensitive Abca4^−/−Rdh8^−/− mice to white light delivered at 10,000 lux (150-W spiral lamp, Commercial Electric, Cleveland, OH) for 30 min. Mice were dark-adapted 24 h prior to photobleaching, and pupils were dilated with 1% ophthalmic tropicamide 30 min prior to light exposure. […]
Mice were anesthetized by intraperitoneal injection of ketamine (20 mg/mL) with xylazine (1.75 mg/mL) at a dose of 5 μL/g bw, and pupils were dilated with 1% tropicamide prior to imaging. […] For quantitative measurements of photoreceptor viability, ONL thickness was measured in the InVivoVue software at a distance of 0.45 mm from the optic nerve head in the temporal retina, where the most severe damage is found in bright light-exposed Abca4^−/−Rdh8^−/− mice. […]

A further assay relates to H3K27ac. As to the kind of experiment: Quantitative Western blot of H3K27ac (euchromatin) in retina of photobleached dKO mice. The note with it: 60 mg/kg bw intraperitoneal 30 min prior to light exposure, 1 d post-bleach. Type of assay: in vivo, mouse.
From the text: as §1, §2

In the next assay the test system is HDAC4, 5, 6, 7, and 8. The note with it: cited from earlier work.
Assay [4] deals with HDAC11 substrate, serine hydroxymethyl transferase 2. The note with it: cited from earlier work.
Another assay relates to other HDACs. The note with it: cited from earlier work.
A further assay deals with T1, HDAC11 (Homo sapiens, UniProt Q96DB2).
T1 sequence (Q96DB2 1-347): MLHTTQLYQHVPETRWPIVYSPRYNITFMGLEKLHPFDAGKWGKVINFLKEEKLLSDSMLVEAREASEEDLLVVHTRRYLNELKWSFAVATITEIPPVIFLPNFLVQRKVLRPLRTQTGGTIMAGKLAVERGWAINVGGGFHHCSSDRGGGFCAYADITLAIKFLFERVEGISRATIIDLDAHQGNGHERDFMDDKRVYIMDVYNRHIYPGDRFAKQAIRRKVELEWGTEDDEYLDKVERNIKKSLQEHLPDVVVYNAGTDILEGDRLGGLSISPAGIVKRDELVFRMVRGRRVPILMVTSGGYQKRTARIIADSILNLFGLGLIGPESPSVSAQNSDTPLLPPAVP
The note with it: mammalian HDAC11; cited from earlier work.

The test system of a further assay is HDAC. To be noted: with exception for HDAC6; read-out: IC50 pan-HDAC; cited from earlier work.
The subject of the next assay is HDACs 6 and 7. The note with it: cited from earlier work.
A further assay relates to HDACs 2, 4, 10, and 11. The note with it: cited from earlier work.

Structures are written as SMILES. Entries after “also recorded” stand apart in the source; their conditions may differ.

As to `COc1cc(OC)c(-c2cn3ccc(N4CC[C@H](NCc5ccncc5)C4)cc3n2)cc1Cl` [OTS186935, (S)-1-(2-(5-chloro-2,4-dimethoxyphenyl)imidazo[1,2-a]pyridin-7-yl)-N-(pyridin-4-ylmethyl)pyrrolidin-3-amine], the “H3K9me3 signal in retinal cross-sections (immunohistochemistry)” value in the assay with H3K9me3 [1] is “attenuated”. For the same molecule, in the assay with H3K9me3 [2], the “Heterochromatin abundance (H3K9me3) in RPE/choroid” value is “attenuates the stress-induced increase in heterochromatin abundance”. The “Stress-induced retinal pathology by SLO and OCT (ONL thickness)” value in assay [3] is listed as “sufficient to ameliorate stress-induced retinal pathology; also recorded: ameliorated”.

With `Nc1ccccc1NC(=O)c1ccc(CNc2nccc(-c3cccnc3)n2)cc1` [Mocetinostat], the “Euchromatin abundance (H3K27ac) in retina” value in the assay with H3K27ac is reported as “rescues the stress-induced reduction in euchromatin abundance”. The “Activity to HDAC4, 5, 6, 7, and 8” value in the assay on HDAC4, 5, 6, 7, and 8 is given as “no activity”. The “Stress-induced retinal pathology by SLO and OCT (ONL thickness)” value in assay [3] is reported as “sufficient to ameliorate stress-induced retinal pathology; also recorded: ameliorated”.

Take `CCCCCCCCCCCCCCCCNNC(=O)c1cccs1` [SIS17]: the “Demyristoylation of serine hydroxymethyl transferase 2” value in assay [4] was “inhibits the demyristoylation”. Further, the “Inhibition of other HDACs” value in the assay on other HDACs is “without inhibiting other HDACs”. The IC50 on HDAC11 is 830 nM.

As for `CCCCc1nc2cc(/C=C/C(=O)NO)ccc2n1CCN(CC)CC` [Pracinostat], the IC50 in the assay on HDAC is 40 to 140 nM.

On to `Cn1cc(CNCC2CCN(c3ncc(C(=O)NO)cn3)CC2)c2ccccc21` [Quisinostat], for which the “Potency to HDACs 6 and 7” value with HDACs 6 and 7 is “lowest potency”. The “Potency to HDACs 2, 4, 10, and 11” value with HDACs 2, 4, 10, and 11 is “modest potent”.
